As a reminder, the IC50 is the concentration needed to halve the response being measured.

In the assay the target is Beta-3 Adrenergic Receptor (Homo sapiens (Human), UniProt P13945). The experiment in a line: Homogeneous Time-Resolved Fluorescence (HTRF) cAMP antagonist assay, IC50 determination. To be noted: CHO-K1 cells stably expressing recombinant receptor, isoproterenol at EC90. The class given is cell-based. The method, boiled down: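 CHO-K1 cells stably expressing the recombinant receptor were preincubated with compound (10-point, 5-fold dilutions; top final typically 10 or 100 μM) in PBS with 1 mM IBMX, then stimulated with isoproterenol at its EC90 for 1 h at room temperature. cAMP was read by HTRF against an on-plate standard curve.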
Chain of Beta-3 Adrenergic Receptor (P13945 whole entry, species assumed): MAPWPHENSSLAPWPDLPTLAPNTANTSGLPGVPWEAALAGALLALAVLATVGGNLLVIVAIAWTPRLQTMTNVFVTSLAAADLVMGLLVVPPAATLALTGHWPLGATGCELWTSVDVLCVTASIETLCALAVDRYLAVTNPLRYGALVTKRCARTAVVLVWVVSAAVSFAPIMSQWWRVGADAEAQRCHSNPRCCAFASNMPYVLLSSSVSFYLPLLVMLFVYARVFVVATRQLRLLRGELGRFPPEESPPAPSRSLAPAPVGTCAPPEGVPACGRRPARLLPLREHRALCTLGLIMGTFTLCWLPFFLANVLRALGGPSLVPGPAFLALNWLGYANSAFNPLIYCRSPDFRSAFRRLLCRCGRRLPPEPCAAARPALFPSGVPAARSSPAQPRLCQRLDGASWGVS
(In TR-FRET formats the signal depends on donor and acceptor labels being close together.)
`CNS(=O)(=O)c1cccc(OC[C@@H](O)CNC2COC3(CCN(S(=O)(=O)c4ccc5c(c4)OCCO5)CC3)C2)c1` (stereo partly drawn) [Compound 332, 3-((2S)-3-(8-(2,3-dihydrobenzo[b][1,4]dioxin-6-ylsulfonyl)-1-oxa-8-azaspiro[4.5]decan-3-ylamino)-2-hydroxypropoxy)-N-methylbenzenesulfonamide]: the IC50 was found to be 17.9 nM. The figure for `CCN1CCOc2ccc(S(=O)(=O)N3CCC4(CC3)CC(NC[C@H](O)COc3cccc(S(=O)(=O)NC)c3)CO4)cc21` (stereo partly drawn) [Compound 333, 3-((2S)-3-(8-(4-ethyl-3,4-dihydro-2H-benzo[b][1,4]oxazin-6-ylsulfonyl)-1-oxa-8-azaspiro[4.5]decan-3-ylamino)-2-hydroxypropoxy)-N-methylbenzenesulfonamide] is 9.02 nM; for `CNS(=O)(=O)c1cccc(OC[C@@H](O)CNC2COC3(CCN(S(=O)(=O)c4ccc5c(c4)N(C(C)C)CCO5)CC3)C2)c1` (stereo partly drawn) [Compound 334, 3-((2S)-2-hydroxy-3-(8-(4-isopropyl-3,4-dihydro-2H-benzo[b][1,4]oxazin-6-ylsulfonyl)-1-oxa-8-azaspiro[4.5]decan-3-ylamino)propoxy)-N-methylbenzenesulfonamide] it is 27.3 nM. For `CNS(=O)(=O)c1cccc(OC[C@@H](O)CN[C@@H]2COC3(CCN(S(=O)(=O)c4cnc5ccccc5c4)CC3)C2)c1` [Compound 335, 3-((S)-2-hydroxy-3-((S)-8-(quinolin-3-ylsulfonyl)-1-oxa-8-azaspiro[4.5]decan-3-ylamino)propoxy)-N-methylbenzenesulfonamide], the IC50 came to 12.1 nM. The figure for `CNS(=O)(=O)c1cccc(OC[C@@H](O)CN[C@H]2COC3(CCN(S(=O)(=O)c4cnc5ccccc5c4)CC3)C2)c1` [Compound 336, 3-((S)-2-hydroxy-3-((R)-8-(quinolin-3-ylsulfonyl)-1-oxa-8-azaspiro[4.5]decan-3-ylamino)propoxy)-N-methylbenzenesulfonamide] is 15.3 nM; for `CNS(=O)(=O)c1cccc(OC[C@@H](O)CNC2COC3(CCN(S(=O)(=O)c4cncc(Br)c4)CC3)C2)c1` (stereo partly drawn) [Compound 337, 3-((2S)-3-(8-(5-bromopyridin-3-ylsulfonyl)-1-oxa-8-azaspiro[4.5]decan-3-ylamino)-2-hydroxypropoxy)-N-methylbenzenesulfonamide] it is 18.6 nM; for `CNS(=O)(=O)c1cccc(OC[C@@H](O)CNC2COC3(CCN(S(=O)(=O)c4cccc(-c5ccc(CNCC#N)cc5)c4)CC3)C2)c1` (stereo partly drawn) [Compound 338, 3-((2S)-3-(8-(4′-((cyanomethylamino)methyl)biphenyl-3-ylsulfonyl)-1-oxa-8-azaspiro[4.5]decan-3-ylamino)-2-hydroxypropoxy)-N-methylbenzenesulfonamide] it is 47.1 nM. In the case of `CNS(=O)(=O)c1cccc(OC[C@@H](O)CNC2COC3(CCN(S(=O)(=O)c4cccc(-c5ccc(CNCC(F)F)cc5)c4)CC3)C2)c1` (stereo partly drawn) [Compound 339, 3-((2S)-3-(8-(4′-((2,2-difluoroethylamino)methyl)biphenyl-3-ylsulfonyl)-1-oxa-8-azaspiro[4.5]decan-3-ylamino)-2-hydroxypropoxy)-N-methylbenzenesulfonamide], the IC50 was found to be 42.4 nM.

Consider `CNS(=O)(=O)c1cccc(OC[C@@H](O)CNC2COC3(CCN(S(=O)(=O)c4cccc(-c5ccc(CNCCOC)cc5)c4)CC3)C2)c1` (stereo partly drawn) [Compound 340, 3-((2S)-2-hydroxy-3-(8-(4′-((2-methoxyethylamino)methyl)biphenyl-3-ylsulfonyl)-1-oxa-8-azaspiro[4.5]decan-3-ylamino)propoxy)-N-methylbenzenesulfonamide], for which the IC50 is 30.9 nM. In the case of `CNS(=O)(=O)c1cccc(OC[C@@H](O)CNC2COC3(CCN(S(=O)(=O)c4cncc(-c5ccc(CN)cc5)c4)CC3)C2)c1` (stereo partly drawn) [Compound 341, 3-((2S)-3-(8-(5-(4-(aminomethyl)phenyl)pyridin-3-ylsulfonyl)-1-oxa-8-azaspiro[4.5]decan-3-ylamino)-2-hydroxypropoxy)-N-methylbenzenesulfonamide], the IC50 is 28.5 nM. For the compound `CNS(=O)(=O)c1cccc(OC[C@@H](O)CNC2COC3(CCN(S(=O)(=O)c4cncc(-c5cnn(C)c5)c4)CC3)C2)c1` (stereo partly drawn) [Compound 342, 3-((2S)-2-hydroxy-3-(8-(5-(1-methyl-1H-pyrazol-4-yl)pyridin-3-ylsulfonyl)-1-oxa-8-azaspiro[4.5]decan-3-ylamino)propoxy)-N-methylbenzenesulfonamide], the IC50 is 42.6 nM. Take `CNS(=O)(=O)c1cccc(OC[C@@H](O)CN[C@@H]2COC3(CCN(S(=O)(=O)c4ccc5ncccc5c4)CC3)C2)c1` [Compound 343, 3-((S)-2-hydroxy-3-((S)-8-(quinolin-6-ylsulfonyl)-1-oxa-8-azaspiro[4.5]decan-3-ylamino)propoxy)-N-methylbenzenesulfonamide]: the IC50 stood at 27.7 nM. To `CNS(=O)(=O)c1cccc(OC[C@@H](O)CN[C@H]2COC3(CCN(S(=O)(=O)c4ccc5ncccc5c4)CC3)C2)c1` [Compound 344, 3-((S)-2-hydroxy-3-((R)-8-(quinolin-6-ylsulfonyl)-1-oxa-8-azaspiro[4.5]decan-3-ylamino)propoxy)-N-methylbenzenesulfonamide] belongs 42.7 nM; to `CNS(=O)(=O)c1cccc(OC[C@@H](O)CNC2COC3(CCN(S(=O)(=O)c4cccc(-c5ccc(CN[C@@H](CO)C(N)=O)cc5)c4)CC3)C2)c1` (stereo partly drawn) [Compound 345, (2S)-3-hydroxy-2-((3′-(3-((S)-2-hydroxy-3-(3-(N-methylsulfamoyl)phenoxy)propylamino)-1-oxa-8-azaspiro[4.5]decan-8-ylsulfonyl)biphenyl-4-yl)methylamino)propanamide], 107 nM.

As to `CNS(=O)(=O)c1cccc(OC[C@@H](O)CNC2COC3(CCN(S(=O)(=O)c4cccc(-c5ccc(CN6CCSC6)cc5)c4)CC3)C2)c1` (stereo partly drawn) [Compound 346, 3-((2S)-2-hydroxy-3-(8-(4′-(thiazolidin-3-ylmethyl)biphenyl-3-ylsulfonyl)-1-oxa-8-azaspiro[4.5]decan-3-ylamino)propoxy)-N-methylbenzenesulfonamide], the IC50 worked out at 126 nM. Turning to `CNS(=O)(=O)c1cccc(OC[C@@H](O)CNC2COC3(CCN(S(=O)(=O)c4cccc(-c5ccc(CNCCF)cc5)c4)CC3)C2)c1` (stereo partly drawn) [Compound 347, 3-((2S)-3-(8-(4′-((2-fluoroethylamino)methyl)biphenyl-3-ylsulfonyl)-1-oxa-8-azaspiro[4.5]decan-3-ylamino)-2-hydroxypropoxy)-N-methylbenzenesulfonamide], the IC50 worked out at 33.5 nM. Turning to `CNS(=O)(=O)c1cccc(OC[C@@H](O)CNC2COC3(CCN(S(=O)(=O)c4cccc(-c5ccc(CNCCNC(C)=O)cc5)c4)CC3)C2)c1` (stereo partly drawn) [Compound 348, N-(2-((3′-(3-((S)-2-hydroxy-3-(3-(N-methylsulfamoyl)phenoxy)propylamino)-1-oxa-8-azaspiro[4.5]decan-8-ylsulfonyl)biphenyl-4-yl)methylamino)ethyl)acetamide], the IC50 was 36.7 nM. On to `CNS(=O)(=O)c1cccc(OC[C@@H](O)CNC2COC3(CCN(S(=O)(=O)c4ccc5c(c4)N(CC(C)C)CCO5)CC3)C2)c1` (stereo partly drawn) [Compound 349, 3-((2S)-2-hydroxy-3-(8-(4-isobutyl-3,4-dihydro-2H-benzo[b][1,4]oxazin-6-ylsulfonyl)-1-oxa-8-azaspiro[4.5]decan-3-ylamino)propoxy)-N-methylbenzenesulfonamide], for which the IC50 was determined as 67.9 nM.
